The values that follow come from PubChem BioAssay AID743309 (Sanford-Burnham Center for Chemical Genomics, 2014).

Active and inactive are the calls of the source.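 Rule for the calls: active = IC50 at or below 20 µM; inactive = the rest.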

For this assay, the target named is Tyrosine-protein phosphatase non-receptor type 22 (Homo sapiens) (UniProt Q9Y2R2). The assay is described as follows: LYP phosphatase inhibition for selectivity, SAR follow-up, selectivity assay for LMPTP inhibitor project, biochemical, fluorescence, LYP catalytic domain (AID 743309). The following applies: recombinant LYP catalytic domain, OMFP fluorescence.
Chain of Tyrosine-protein phosphatase non-receptor type 22 (Homo sapiens) (Q9Y2R2 whole entry, looked up, the tested form may be a part): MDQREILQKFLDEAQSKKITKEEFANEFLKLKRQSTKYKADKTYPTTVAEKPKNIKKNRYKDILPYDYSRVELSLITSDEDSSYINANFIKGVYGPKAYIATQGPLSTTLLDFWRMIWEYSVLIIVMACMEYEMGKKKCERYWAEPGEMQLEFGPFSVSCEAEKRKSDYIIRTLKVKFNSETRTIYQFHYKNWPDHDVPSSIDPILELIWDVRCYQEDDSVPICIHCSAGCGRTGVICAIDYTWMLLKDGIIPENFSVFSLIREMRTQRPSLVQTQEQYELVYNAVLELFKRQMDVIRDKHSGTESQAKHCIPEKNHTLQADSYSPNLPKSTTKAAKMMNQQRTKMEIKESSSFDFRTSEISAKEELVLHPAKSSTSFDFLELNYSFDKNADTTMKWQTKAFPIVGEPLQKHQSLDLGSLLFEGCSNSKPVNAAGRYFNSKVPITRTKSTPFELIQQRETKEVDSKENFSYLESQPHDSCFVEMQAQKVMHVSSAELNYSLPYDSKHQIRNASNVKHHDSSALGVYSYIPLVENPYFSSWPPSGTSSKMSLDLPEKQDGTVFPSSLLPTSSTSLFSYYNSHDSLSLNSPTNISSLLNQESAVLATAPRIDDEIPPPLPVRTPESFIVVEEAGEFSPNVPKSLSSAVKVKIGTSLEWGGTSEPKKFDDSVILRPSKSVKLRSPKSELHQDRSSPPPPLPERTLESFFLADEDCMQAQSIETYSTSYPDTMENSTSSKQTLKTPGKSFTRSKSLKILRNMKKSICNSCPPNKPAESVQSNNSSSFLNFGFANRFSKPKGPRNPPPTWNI
By IC50 is commonly meant the concentration that inhibits the measured activity by half. Regarding `c1ccc(-c2cc(SCCCN3CCCCC3)c3ccccc3n2)cc1`, the IC50 is > 80 µM (inactive).

As to `Fc1ccccc1-c1nc(NCCCN2CCOCC2)c2ccccc2n1`, the IC50 is > 80 µM (inactive).

As to `CC(C)CNc1nc(-c2ccccc2)nc2ccccc12`, the IC50 is > 80 µM (inactive).

On to `Cc1ccc(-c2cc(NCCCN3CCCCC3)c3ccccc3n2)cc1`, for which the IC50 was > 80 µM (inactive).

As for `CC1CCN(c2nc(-c3ccccc3)nc3ccccc23)CC1`, the IC50 is > 80 µM (inactive).

Turning to `c1ccc(-c2nc(N3CCCCC3)c3ccccc3n2)cc1`, the IC50 was > 80 µM (inactive).

For `c1ccc(-c2nc(N3CCOCC3)c3ccccc3n2)cc1`, the IC50 was > 80 µM (inactive).

Regarding `COc1ccccc1CNc1ncnc2ccsc12`, the IC50 was > 80 µM (inactive).

On to `Cc1ccc2nc(-c3ccccc3)cc(NCCCN3CCCCC3)c2c1`, for which the IC50 is > 80 µM (inactive).

Regarding `c1ccc(-c2nc(N3CCCC3)c3ccccc3n2)cc1`, the IC50 is > 80 µM (inactive).

For the molecule `c1ccc(-c2cc(N3CCCCC3)c3ccccc3n2)cc1`, the IC50 was > 80 µM (inactive).

As for `CC(C)OCCCNc1nc(-c2ccccc2)nc2ccccc12`, the IC50 was > 80 µM (inactive).

Turning to `c1ccc(-c2nc(NCCCn3ccnc3)c3ccccc3n2)cc1`, the IC50 was > 80 µM (inactive).

With `c1ccc(-c2cc(NCCN3CCOCC3)c3ccccc3n2)cc1`, the IC50 was > 80 µM (inactive).

`Fc1ccc(-c2cc(NCCCN3CCCCC3)c3ccccc3n2)cc1`: the IC50 was > 80 µM (inactive).

In the case of `c1ccc(-c2nc(NCCCN3CCOCC3)c3ccccc3n2)cc1`, the IC50 was > 80 µM (inactive).

Take `Fc1ccccc1-c1nc(NC2CCCC2)c2ccccc2n1`: the IC50 is > 80 µM (inactive).

With `Clc1ccc(-c2cc(NCCCN3CCCCC3)c3ccccc3n2)cc1`, the IC50 is > 80 µM (inactive).

As to `c1ccc(-c2nc(NCCCN3CCCCC3)c3ccccc3n2)cc1`, the IC50 was > 80 µM (inactive).

Consider `c1ccc(-c2nc(N3CCSCC3)c3ccccc3n2)cc1`, for which the IC50 is > 80 µM (inactive).

For `c1ccc(-c2nc(NCCN3CCCC3)c3ccccc3n2)cc1`, the IC50 was > 80 µM (inactive).

Consider `CCN(CC)c1nc(-c2ccccc2)nc2ccccc12`, for which the IC50 was > 80 µM (inactive).

`Cc1ccc(-c2nc(NCc3cccnc3)c3ccccc3n2)cc1`: the IC50 is > 80 µM (inactive).

With `Nc1nc(N)c(Cc2ccc(Cl)cc2Cl)c(N)n1`, the IC50 is > 80 µM (inactive).

As for `c1ccc(-c2cc(NCCN3CCCC3)c3ccccc3n2)cc1`, the IC50 was > 80 µM (inactive).

`Cc1cccc(-c2nc(NCCCN3CCOCC3)c3ccccc3n2)c1`: the IC50 is > 80 µM (inactive).

`CN(C)CCNc1cc(-c2ccccc2)nc2ccccc12`: the IC50 is > 80 µM (inactive).

For `CN(C)CCNc1nc(-c2ccccc2)nc2ccccc12`, the IC50 is > 80 µM (inactive).

`CCCCNc1nc(-c2ccccc2)nc2ccccc12`: the IC50 was > 80 µM (inactive).

With `c1ccc(-c2nc(NC3CCCC3)c3ccccc3n2)cc1`, the IC50 is > 80 µM (inactive).

Turning to `c1ccc(-c2nc(N3CCCCCC3)c3ccccc3n2)cc1`, the IC50 is > 80 µM (inactive).

Consider `COc1cccc(-c2cc(NCCCN3CCCCC3)c3ccccc3n2)c1`, for which the IC50 is > 80 µM (inactive).

For `c1ccc2c(NCCCN3CCCCC3)cc(-c3ccncc3)nc2c1`, the IC50 was > 80 µM (inactive).

In the case of `FC(F)(F)c1cccc(-c2cc(NCCCN3CCCCC3)c3ccccc3n2)c1`, the IC50 is > 80 µM (inactive).

Turning to `c1ccc(-c2nc(NCCN3CCOCC3)c3ccccc3n2)cc1`, the IC50 was > 80 µM (inactive).

For the molecule `Clc1cccc(Cl)c1Cn1cnc(=NCc2ccco2)c2[nH]cnc21`, the IC50 is > 80 µM (inactive).

For the molecule `CC(C)Nc1nc(-c2ccccc2)nc2ccccc12`, the IC50 is > 80 µM (inactive).

Take `Fc1cccc(-c2cc(NCCCN3CCCCC3)c3ccccc3n2)c1`: the IC50 is > 80 µM (inactive).

As for `Cc1c(CCC(=O)O)c(=O)oc2c(C)c(OCc3ccccc3Cl)ccc12`, the concentration for half-maximal inhibition (IC50) was 15.7 µM.

For `c1ccc(-c2cc(OCCCN3CCCCC3)c3ccccc3n2)cc1`, the IC50 is > 80 µM (inactive).

With `CN1CCN(c2nc(-c3ccccc3)nc3ccccc23)CC1`, the IC50 is > 80 µM (inactive).

As for `c1ccc(-c2nc(NCc3cccnc3)c3ccccc3n2)cc1`, the IC50 is > 80 µM (inactive).

Take `Clc1cccc(-c2cc(NCCCN3CCCCC3)c3ccccc3n2)c1`: the IC50 is > 80 µM (inactive).

For `COc1ccc(-c2cc(NCCCN3CCCCC3)c3ccccc3n2)cc1`, the IC50 was > 80 µM (inactive).

`c1ccc(-c2nc(NC3CCCCC3)c3ccccc3n2)cc1`: the IC50 was > 80 µM (inactive).

As to `CCc1nc(N)nc(N)c1-c1ccc(Cl)cc1`, the IC50 was > 80 µM (inactive).

With `Fc1ccc2nc(-c3ccccc3)cc(NCCCN3CCCCC3)c2c1`, the IC50 was > 80 µM (inactive).

Take `Cc1ccc(-c2nc(NCCN3CCOCC3)c3ccccc3n2)cc1`: the IC50 was > 80 µM (inactive).

On to `O=C(OCCNc1nc(-c2ccccc2)nc2ccccc12)c1ccncc1`, for which the IC50 was > 80 µM (inactive).

On to `c1ccc(-c2nc(NC3CC3)c3ccccc3n2)cc1`, for which the IC50 was > 80 µM (inactive).

Regarding `c1ccc(-c2cc(NCCCN3CCCCC3)c3ccccc3n2)cc1`, the IC50 was > 80 µM (inactive).

Consider `c1ccc(-c2cc(NCCN3CCCCC3)c3ccccc3n2)cc1`, for which the IC50 was > 80 µM (inactive).

On to `COc1cc2nc(-c3ccccc3)cc(NCCCN3CCCCC3)c2cc1OC`, for which the IC50 is > 80 µM (inactive).

For the molecule `O=C(OCCNc1nc(-c2ccccc2)nc2ccccc12)c1cccnc1`, the IC50 is > 80 µM (inactive).

Consider `Clc1ccccc1-c1cc(NCCCN2CCCCC2)c2ccccc2n1`, for which the IC50 is > 80 µM (inactive).

With `COc1ccccc1-c1cc(NCCCN2CCCCC2)c2ccccc2n1`, the IC50 was > 80 µM (inactive).

For `Brc1ccc2nc(-c3ccccc3)cc(NCCCN3CCCCC3)c2c1`, the IC50 was > 80 µM (inactive).

For the molecule `c1ccc(-c2nc(NCCN3CCCCC3)c3ccccc3n2)cc1`, the IC50 was > 80 µM (inactive).

In the case of `c1ccc(-c2cc(NCCCN3CCOCC3)c3ccccc3n2)cc1`, the IC50 was > 80 µM (inactive).
